Measurements: ChEMBL document CHEMBL1909046, “DrugMatrix in vitro pharmacology data”

What was measured:
[1] = DRUGMATRIX: Atrial Natriuretic Factor (ANF) radioligand binding (ligand: [125I] ANF (rat)); type: cell membranes, Cavia porcellus, Dunkin-Hartley, Adrenal gland, Membrane; conditions: Not Active = under 50% inhibition at 10 µM
[2] = DRUGMATRIX: beta-Lactamase enzyme inhibition (substrate: Nitrocefin); design: species or system Bacillus cereus; conditions: Not Active = under 50% inhibition at 10 µM
[3] = target: Sigma non-opioid intracellular receptor 1 (Homo sapiens, UniProt Q99720); assay: DRUGMATRIX: Sigma1 radioligand binding (ligand: [3H] Haloperidol); type: cell membranes, Jurkat, Membrane; conditions: Not Active = under 50% inhibition at 10 µM
Sigma non-opioid intracellular receptor 1, sequence (Q99720 whole entry): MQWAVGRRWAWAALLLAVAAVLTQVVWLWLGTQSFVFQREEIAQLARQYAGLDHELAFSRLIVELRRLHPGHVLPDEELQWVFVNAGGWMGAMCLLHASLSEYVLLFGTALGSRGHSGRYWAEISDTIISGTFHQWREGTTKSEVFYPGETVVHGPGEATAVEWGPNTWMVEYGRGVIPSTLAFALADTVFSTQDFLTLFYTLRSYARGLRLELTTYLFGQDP

[4] = target: T1, Cysteinyl leukotriene receptor 1 (Homo sapiens, UniProt Q9Y271); type: cell membranes, CHO-K1, Membrane; also: in other assays of this panel Not Active means under 50% inhibition at 10 µM
T1 sequence (Q9Y271 whole entry): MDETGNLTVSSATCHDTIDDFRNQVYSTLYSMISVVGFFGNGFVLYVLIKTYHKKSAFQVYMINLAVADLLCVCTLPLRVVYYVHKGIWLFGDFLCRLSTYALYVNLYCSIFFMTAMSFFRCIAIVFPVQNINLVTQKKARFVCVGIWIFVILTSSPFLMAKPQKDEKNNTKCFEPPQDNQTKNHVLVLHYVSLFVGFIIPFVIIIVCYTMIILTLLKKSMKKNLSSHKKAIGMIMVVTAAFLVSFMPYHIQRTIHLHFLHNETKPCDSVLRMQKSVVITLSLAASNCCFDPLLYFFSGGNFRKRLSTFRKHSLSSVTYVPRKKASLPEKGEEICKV

[5] = target: T2, Polyunsaturated fatty acid lipoxygenase ALOX15 (Oryctolagus cuniculus, UniProt P12530); assay: biochemical; type: tissue-based, Reticulocytes;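 also: inhibition of 15-lipoxygenase enzyme activity measured with linoleic acid as the substrate; in other assays of this panel Not Active means under 50% inhibition at 10 µM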
T2 sequence (P12530 whole entry): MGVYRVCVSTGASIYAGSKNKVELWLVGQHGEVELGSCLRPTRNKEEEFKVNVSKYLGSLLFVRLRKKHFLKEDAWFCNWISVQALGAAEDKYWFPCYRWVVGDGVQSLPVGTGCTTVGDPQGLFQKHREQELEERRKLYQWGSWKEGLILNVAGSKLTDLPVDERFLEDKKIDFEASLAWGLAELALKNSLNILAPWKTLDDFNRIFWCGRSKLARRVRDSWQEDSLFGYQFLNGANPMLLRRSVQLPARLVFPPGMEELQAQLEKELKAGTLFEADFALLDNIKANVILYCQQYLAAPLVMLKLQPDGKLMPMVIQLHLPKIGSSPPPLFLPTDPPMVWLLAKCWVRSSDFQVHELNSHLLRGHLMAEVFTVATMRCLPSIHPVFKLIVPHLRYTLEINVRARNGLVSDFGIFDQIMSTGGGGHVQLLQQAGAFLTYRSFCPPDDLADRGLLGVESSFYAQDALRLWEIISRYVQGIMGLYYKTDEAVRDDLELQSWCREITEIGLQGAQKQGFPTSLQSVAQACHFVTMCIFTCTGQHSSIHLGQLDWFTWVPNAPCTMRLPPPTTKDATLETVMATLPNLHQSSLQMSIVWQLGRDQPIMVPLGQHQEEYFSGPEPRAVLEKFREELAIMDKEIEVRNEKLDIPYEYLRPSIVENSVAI

[6] = target: T3, Muscarinic acetylcholine receptor M4 (Homo sapiens, UniProt P08173); type: cell membranes, CHO-K1, Membrane; conditions: cho-k1; also: in other assays of this panel Not Active means under 50% inhibition at 10 µM
T3 sequence (P08173 whole entry): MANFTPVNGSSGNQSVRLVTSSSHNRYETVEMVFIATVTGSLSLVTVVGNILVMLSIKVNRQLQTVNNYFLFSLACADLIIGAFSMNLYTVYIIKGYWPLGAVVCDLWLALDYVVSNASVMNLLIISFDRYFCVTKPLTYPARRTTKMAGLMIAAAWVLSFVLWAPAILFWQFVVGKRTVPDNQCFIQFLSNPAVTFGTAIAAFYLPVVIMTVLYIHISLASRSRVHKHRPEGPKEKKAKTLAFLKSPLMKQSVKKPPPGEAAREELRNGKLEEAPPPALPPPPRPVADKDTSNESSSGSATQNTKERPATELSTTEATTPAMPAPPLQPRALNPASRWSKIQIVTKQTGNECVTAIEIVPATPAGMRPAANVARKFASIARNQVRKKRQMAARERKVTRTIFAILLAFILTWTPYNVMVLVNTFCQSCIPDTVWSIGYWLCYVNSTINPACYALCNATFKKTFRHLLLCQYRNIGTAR

| Molecule | IC50 [1] | Ki [1] | IC50 [2] | Ki [2] | IC50 ([3]; jurkat) | IC50 ([4]; cho-k1) | IC50 ([5]; reticulocytes) | IC50 [6] | IC50 ([5]; read-out: IC50) [µM] | Ki ([3]; jurkat) | Ki ([4]; cho-k1) | Ki ([5]; reticulocytes) | Ki [6] | IC50 ([3]; read-out: IC50) [µM] | Ki ([3]; read-out: Ki) [µM] | IC50 ([4]; read-out: IC50) [µM] | Ki ([4]; read-out: Ki) [µM] |
| --- | --- | --- | --- | --- | --- | --- | --- | --- | --- | --- | --- | --- | --- | --- | --- | --- | --- |
| OC[C@H]1OC2C3[C@@H](CO)OC(O[C@H]4[C@H](O)[C@@H](O)[C@@H](O[C@H]5[C@H](O)[C@@H](O)[C@@H](O[C@H]6[C@H](O)[C@@H](O)[C@@H](O[C@H]7[C@H](O)[C@@H](O)[C@@H](O[C@H]8[C@H](O)[C@@H](O)[C@@H](O[C@H]9[C@H](O)[C@@H](O)C(OC1[C@H](O)[C@H]2O)O[C@@H]9CO)O[C@@H]8CO)O[C@@H]7CO)O[C@@H]6CO)O[C@@H]5CO)O[C@@H]4CO)[C@H](O)[C@H]3O | Not Active | Not Active | Not Active | Not Active | Not Active | Not Active | Not Active | Not Active | – | – | – | – | – | – | – | – | – |
| COc1cc(/C=C/C(=O)O)ccc1O [FERULATE] | Not Active | Not Active | Not Active | Not Active | Not Active | Not Active | – | Not Active | 3.98 | – | – | – | – | – | – | – | – |
| CCN1C[C@]2(COC)[C@H](O)C[C@H](OC)[C@@]34[C@@H]5C[C@@]6(O)[C@H](OC(=O)c7ccccc7)[C@@H]5[C@@](OC(C)=O)([C@@H]([C@H](OC)[C@H]23)[C@@H]14)[C@@H](O)[C@@H]6OC [ACONITINE] | Not Active | Not Active | Not Active | Not Active | Not Active | Not Active | Not Active | Not Active | – | – | – | – | – | – | – | – | – |
| CO[C@H]1O[C@@H]2O[C@@]3(C)CC[C@H]4[C@H](C)CC[C@@H]([C@H]1C)[C@@]24OO3 | Not Active | Not Active | Not Active | Not Active | Not Active | Not Active | Not Active | Not Active | – | – | – | – | – | – | – | – | – |
| C[C@@H]1[C@H](O)[C@@H](C)/C=C/C=C/C=C/C=C/C=C/C=C/C=C/[C@H](O[C@@H]2O[C@H](C)[C@@H](O)[C@H](N)[C@@H]2O)C[C@@H]2O[C@](O)(C[C@@H](O)C[C@@H](O)[C@H](O)CC[C@@H](O)C[C@@H](O)CC(=O)O[C@H]1C)C[C@H](O)[C@H]2C(=O)O [AMPHOTERICIN B] | Not Active | Not Active | Not Active | Not Active | Not Active | Not Active | Not Active | Not Active | – | – | – | – | – | – | – | – | – |
| Oc1ncnc2[nH]ncc12 [ALLOPURINOL] | Not Active | Not Active | Not Active | Not Active | Not Active | Not Active | Not Active | Not Active | – | – | – | – | – | – | – | – | – |
| COc1cc([C@@H]2c3cc4c(cc3[C@H](O)[C@H]3COC(=O)[C@H]23)OCO4)cc(OC)c1OC [PODOFILOX] | Not Active | Not Active | Not Active | Not Active | Not Active | Not Active | Not Active | Not Active | – | – | – | – | – | – | – | – | – |
| NC(=O)CN1CCCC1=O | Not Active | Not Active | Not Active | Not Active | Not Active | Not Active | Not Active | Not Active | – | – | – | – | – | – | – | – | – |
| POVIDONE | Not Active | Not Active | Not Active | Not Active | Not Active | Not Active | Not Active | Not Active | – | Not Active | Not Active | Not Active | Not Active | – | – | – | – |
| Cc1c(N)nc([C@H](CC(N)=O)NC[C@H](N)C(N)=O)nc1C(=O)N[C@H](C(=O)N[C@H](C)[C@@H](O)[C@H](C)C(=O)N[C@H](C(=O)NCCc1nc(-c2nc(C(=O)NCCC[S+](C)C)cs2)cs1)[C@@H](C)O)[C@@H](O[C@@H]1O[C@@H](CO)[C@@H](O)[C@H](O)[C@@H]1O[C@H]1O[C@H](CO)[C@@H](O)[C@H](OC(N)=O)[C@@H]1O)c1c[nH]cn1.[Br-] [BLEOMYCIN A2] | Not Active | Not Active | Not Active | Not Active | Not Active | Not Active | Not Active | Not Active | – | – | – | – | – | – | – | – | – |
| CN(Cc1cc(Br)cc(Br)c1N)C1CCCCC1 [BROMHEXINE] | Not Active | Not Active | Not Active | Not Active | – | Not Active | Not Active | Not Active | – | – | – | – | – | 0.061 | 0.025 | – | – |
| Nc1ccc(Cc2ccc(N)cc2)cc1 | Not Active | Not Active | Not Active | Not Active | Not Active | Not Active | Not Active | Not Active | – | – | – | – | – | – | – | – | – |
| C[C@]12CC[C@@H](O)C[C@@H]1CC[C@@H]1[C@@H]2CC[C@]2(C)C(=O)CC[C@@H]12 [ANDROSTERONE] | Not Active | Not Active | Not Active | Not Active | Not Active | Not Active | Not Active | Not Active | – | – | – | – | – | – | – | – | – |
| O=C(O)c1ccccc1 [BENZOIC ACID] | Not Active | Not Active | Not Active | Not Active | Not Active | Not Active | Not Active | Not Active | – | – | – | – | – | – | – | – | – |
| CC(=O)Nc1ccc2c(c1)Cc1ccccc1-2 [2-ACETYLAMINOFLUORENE] | Not Active | Not Active | Not Active | Not Active | Not Active | Not Active | Not Active | Not Active | – | – | – | – | – | – | – | – | – |
| C[C@H](C(=O)O)c1ccc2oc(-c3ccc(F)cc3)nc2c1 [FLUNOXAPROFEN] | Not Active | Not Active | Not Active | Not Active | Not Active | Not Active | Not Active | Not Active | – | – | – | – | – | – | – | – | – |
| C[C@H]1C[C@H]2[C@@H]3CCC4=CC(=O)C=C[C@]4(C)[C@@]3(F)[C@@H](O)C[C@]2(C)[C@@]1(O)C(=O)CO [BETAMETHASONE] | Not Active | Not Active | Not Active | Not Active | Not Active | Not Active | Not Active | Not Active | – | – | – | – | – | – | – | – | – |
| CN(CCOc1ccc(C[C@H](Nc2ccccc2C(=O)c2ccccc2)C(=O)O)cc1)c1ccccn1 | Not Active | Not Active | Not Active | Not Active | Not Active | – | Not Active | Not Active | – | – | – | – | – | – | – | 10.9 | 5.45 |
| NS(=O)(=O)c1cc(C(=O)O)c(NCc2ccco2)cc1Cl [FUROSEMIDE] | Not Active | Not Active | Not Active | Not Active | Not Active | Not Active | Not Active | Not Active | – | – | – | – | – | – | – | – | – |
| CCN1CCN(c2cc3c(cc2F)c(=O)c(C(=O)O)cn3C2CC2)CC1 [ENROFLOXACIN] | Not Active | Not Active | Not Active | Not Active | Not Active | Not Active | Not Active | Not Active | – | – | – | – | – | – | – | – | – |
| C[N+](C)(C)CCOP(=O)([O-])OC[C@H](O)CO | Not Active | Not Active | Not Active | Not Active | Not Active | Not Active | Not Active | Not Active | – | – | – | – | – | – | – | – | – |
| O=C(Nc1ccc(Cl)c(Cl)c1)c1cc(Cl)cc(Cl)c1O [3,3',4',5-TETRACHLOROSALICYLANILIDE] | Not Active | Not Active | Not Active | Not Active | Not Active | Not Active | Not Active | Not Active | – | – | – | – | – | – | – | – | – |
